Results as given in ChEMBL document CHEMBL1250443, “Microarray-based method for monitoring yeast overexpression strains reveals small-molecule targets in TOR pathway” (Nat Chem Biol, 2006).

Experiments:
[1] = Inhibition of TOR signaling in wild-type Saccharomyces cerevisiae transformed with overexpression plasmids assessed as decreased YKL059C gene expression by microarray
[2] = Inhibition of TOR signaling in wild-type Saccharomyces cerevisiae transformed with overexpression plasmids assessed as increased PDR17 gene expression by microarray
[3] = Inhibition of TOR signaling in wild-type Saccharomyces cerevisiae transformed with overexpression plasmids assessed as increased HSP104 gene expression by microarray
[4] = Inhibition of TOR signaling in wild-type Saccharomyces cerevisiae transformed with overexpression plasmids assessed as increased CDC33 gene expression by microarray
[5] = Inhibition of TOR signaling in wild-type Saccharomyces cerevisiae transformed with overexpression plasmids assessed as decreased CDC42 gene expression by microarray
[6] = Inhibition of TOR signaling in wild-type Saccharomyces cerevisiae transformed with overexpression plasmids assessed as increased NEM1 gene expression by microarray
[7] = Inhibition of TOR signaling in wild-type Saccharomyces cerevisiae transformed with overexpression plasmids assessed as decreased ELP2 gene expression by microarray
[8] = Inhibition of TOR signaling in wild-type Saccharomyces cerevisiae transformed with overexpression plasmids assessed as decreased TPO4 gene expression by microarray
[9] = Inhibition of TOR signaling in wild-type Saccharomyces cerevisiae transformed with overexpression plasmids assessed as decreased PRM6 gene expression by microarray
[10] = Inhibition of TOR signaling in wild-type Saccharomyces cerevisiae transformed with overexpression plasmids assessed as decreased FRE5 gene expression by microarray
[11] = Inhibition of TOR signaling in wild-type Saccharomyces cerevisiae transformed with overexpression plasmids assessed as decreased YCR007C gene expression by microarray
[12] = Inhibition of TOR signaling in wild-type Saccharomyces cerevisiae transformed with overexpression plasmids assessed as decreased YLR224W gene expression by microarray
[13] = Inhibition of TOR signaling in wild-type Saccharomyces cerevisiae transformed with overexpression plasmids assessed as increased YLR297W gene expression by microarray
[14] = Inhibition of TOR signaling in wild-type Saccharomyces cerevisiae transformed with overexpression plasmids assessed as decreased YNL058C gene expression by microarray
[15] = Inhibition of TOR signaling in wild-type Saccharomyces cerevisiae transformed with overexpression plasmids assessed as increased YFL030W gene expression by microarray
[16] = Inhibition of TOR signaling in wild-type Saccharomyces cerevisiae transformed with overexpression plasmids assessed as decreased BUD8 gene expression by microarray
[17] = Inhibition of TOR signaling in wild-type Saccharomyces cerevisiae transformed with overexpression plasmids assessed as increased WHI4 gene expression by microarray
[18] = Inhibition of TOR signaling in wild-type Saccharomyces cerevisiae transformed with overexpression plasmids assessed as increased BRE1 gene expression by microarray
[19] = Inhibition of TOR signaling in wild-type Saccharomyces cerevisiae transformed with overexpression plasmids assessed as decreased HOL1 gene expression by microarray

- fold change (FC) [1]: -2.3
- fold change (FC) [2]: 2.9
- fold change (FC) [3]: 6.3
- fold change (FC) [4]: 2
- fold change (FC) [5]: -2
- fold change (FC) [6]: 2.2
- fold change (FC) [7]: -8.1
- fold change (FC) [8]: -5.8
- fold change (FC) [9]: -4.4
- fold change (FC) [10]: -8.1
- fold change (FC) [11]: -2.2
- fold change (FC) [12]: -2.9
- fold change (FC) [13]: 3.6
- fold change (FC) [14]: -2.1
- fold change (FC) [15]: 3.2
- fold change (FC) [16]: -6.4
- fold change (FC) [17]: 3.4
- fold change (FC) [18]: 4.4
- fold change (FC) [19]: -4.5
Structure (SMILES): CO[C@H]1C[C@@H]2CC[C@@H](C)[C@@](O)(O2)C(=O)C(=O)N2CCCC[C@H]2C(=O)O[C@H]([C@H](C)C[C@@H]2CC[C@@H](O)[C@H](OC)C2)CC(=O)[C@H](C)/C=C(\C)[C@@H](O)[C@@H](OC)C(=O)[C@H](C)C[C@H](C)/C=C/C=C/C=C/1C [SIROLIMUS]
